Test results taken from ChEMBL document CHEMBL1144945, “Development of progesterone receptor antagonists from 1,2-dihydrochromeno[3,4-f]quinoline agonist pharmacophore” (Bioorg Med Chem Lett, 2003).
Activity calls are given as the source filed them.

Assays:
[1] = biological target: T1, Glucocorticoid receptor (Homo sapiens, UniProt P04150); assay: Inhibition of antagonist activity towards glucocorticoid receptor; not active; format: functional
T1 sequence (P04150 whole entry): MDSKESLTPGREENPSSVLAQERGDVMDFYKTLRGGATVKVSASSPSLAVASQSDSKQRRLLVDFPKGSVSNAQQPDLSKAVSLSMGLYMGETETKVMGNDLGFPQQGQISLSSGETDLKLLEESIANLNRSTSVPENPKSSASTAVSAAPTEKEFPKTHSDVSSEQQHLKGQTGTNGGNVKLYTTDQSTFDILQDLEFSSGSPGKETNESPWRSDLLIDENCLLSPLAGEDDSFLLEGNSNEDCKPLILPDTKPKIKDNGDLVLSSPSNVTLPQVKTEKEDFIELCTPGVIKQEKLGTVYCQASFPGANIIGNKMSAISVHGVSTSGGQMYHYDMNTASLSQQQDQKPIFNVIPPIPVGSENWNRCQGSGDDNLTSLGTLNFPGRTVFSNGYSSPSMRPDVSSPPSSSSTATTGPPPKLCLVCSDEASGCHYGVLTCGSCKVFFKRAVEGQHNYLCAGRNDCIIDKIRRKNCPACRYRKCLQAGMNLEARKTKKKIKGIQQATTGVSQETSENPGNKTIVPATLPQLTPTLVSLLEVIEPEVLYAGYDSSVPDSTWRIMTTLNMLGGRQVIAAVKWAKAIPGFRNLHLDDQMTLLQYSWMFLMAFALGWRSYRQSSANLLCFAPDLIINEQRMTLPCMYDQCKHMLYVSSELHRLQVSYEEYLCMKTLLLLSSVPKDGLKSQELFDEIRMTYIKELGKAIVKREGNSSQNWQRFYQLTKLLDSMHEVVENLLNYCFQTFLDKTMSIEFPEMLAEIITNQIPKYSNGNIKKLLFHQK

[2] = biological target: Estrogen receptor (Homo sapiens) (UniProt Q92731+P03372); assay: Antagonist efficacy for Estrogen receptor; Not active; format: functional
[3] = biological target: T2, Glucocorticoid receptor (Homo sapiens) (UniProt P04150); assay: Antagonist efficacy for glucocorticoid receptor; not active; format: functional
T2 sequence (whole entry): T1 sequence (P04150 whole entry)

[4] = biological target: T3, Mineralocorticoid receptor (Homo sapiens, UniProt P08235); assay: Inhibition of antagonist activity towards mineralocorticoid receptor (hMR); Not active; format: functional
T3 sequence (P08235 whole entry): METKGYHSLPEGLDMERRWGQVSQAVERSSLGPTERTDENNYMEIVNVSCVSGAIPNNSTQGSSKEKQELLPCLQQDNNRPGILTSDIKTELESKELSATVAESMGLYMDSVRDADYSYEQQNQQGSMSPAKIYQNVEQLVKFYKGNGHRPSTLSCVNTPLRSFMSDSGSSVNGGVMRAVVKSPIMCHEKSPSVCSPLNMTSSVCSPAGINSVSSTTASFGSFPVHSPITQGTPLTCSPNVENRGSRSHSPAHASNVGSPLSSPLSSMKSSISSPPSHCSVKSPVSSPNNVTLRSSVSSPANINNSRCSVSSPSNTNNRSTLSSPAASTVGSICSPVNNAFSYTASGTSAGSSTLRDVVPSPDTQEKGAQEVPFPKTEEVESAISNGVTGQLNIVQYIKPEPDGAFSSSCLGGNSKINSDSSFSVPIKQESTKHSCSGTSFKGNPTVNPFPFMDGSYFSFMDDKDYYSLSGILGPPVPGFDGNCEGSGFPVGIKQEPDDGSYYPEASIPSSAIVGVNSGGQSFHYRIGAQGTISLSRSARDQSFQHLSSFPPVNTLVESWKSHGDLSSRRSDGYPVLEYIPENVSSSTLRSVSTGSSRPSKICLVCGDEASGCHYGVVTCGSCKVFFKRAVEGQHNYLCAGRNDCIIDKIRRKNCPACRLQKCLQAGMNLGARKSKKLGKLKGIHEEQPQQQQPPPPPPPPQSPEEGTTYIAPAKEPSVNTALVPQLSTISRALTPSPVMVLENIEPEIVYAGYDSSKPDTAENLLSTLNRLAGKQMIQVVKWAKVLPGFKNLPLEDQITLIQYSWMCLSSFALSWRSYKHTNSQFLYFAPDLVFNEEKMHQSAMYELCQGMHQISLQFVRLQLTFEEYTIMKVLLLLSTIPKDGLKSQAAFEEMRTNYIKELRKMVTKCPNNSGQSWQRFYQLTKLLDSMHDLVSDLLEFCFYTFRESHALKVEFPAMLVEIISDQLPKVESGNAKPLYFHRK

[5] = biological target: T4, Mineralocorticoid receptor (Homo sapiens) (UniProt P08235); assay: Antagonist efficacy for mineralocorticoid receptor (hMR); Not active; format: functional
T4 sequence (whole entry): T3 sequence (P08235 whole entry)

[6] = biological target: T5, Androgen receptor (Homo sapiens, UniProt P10275)
T5 sequence (P10275 whole entry): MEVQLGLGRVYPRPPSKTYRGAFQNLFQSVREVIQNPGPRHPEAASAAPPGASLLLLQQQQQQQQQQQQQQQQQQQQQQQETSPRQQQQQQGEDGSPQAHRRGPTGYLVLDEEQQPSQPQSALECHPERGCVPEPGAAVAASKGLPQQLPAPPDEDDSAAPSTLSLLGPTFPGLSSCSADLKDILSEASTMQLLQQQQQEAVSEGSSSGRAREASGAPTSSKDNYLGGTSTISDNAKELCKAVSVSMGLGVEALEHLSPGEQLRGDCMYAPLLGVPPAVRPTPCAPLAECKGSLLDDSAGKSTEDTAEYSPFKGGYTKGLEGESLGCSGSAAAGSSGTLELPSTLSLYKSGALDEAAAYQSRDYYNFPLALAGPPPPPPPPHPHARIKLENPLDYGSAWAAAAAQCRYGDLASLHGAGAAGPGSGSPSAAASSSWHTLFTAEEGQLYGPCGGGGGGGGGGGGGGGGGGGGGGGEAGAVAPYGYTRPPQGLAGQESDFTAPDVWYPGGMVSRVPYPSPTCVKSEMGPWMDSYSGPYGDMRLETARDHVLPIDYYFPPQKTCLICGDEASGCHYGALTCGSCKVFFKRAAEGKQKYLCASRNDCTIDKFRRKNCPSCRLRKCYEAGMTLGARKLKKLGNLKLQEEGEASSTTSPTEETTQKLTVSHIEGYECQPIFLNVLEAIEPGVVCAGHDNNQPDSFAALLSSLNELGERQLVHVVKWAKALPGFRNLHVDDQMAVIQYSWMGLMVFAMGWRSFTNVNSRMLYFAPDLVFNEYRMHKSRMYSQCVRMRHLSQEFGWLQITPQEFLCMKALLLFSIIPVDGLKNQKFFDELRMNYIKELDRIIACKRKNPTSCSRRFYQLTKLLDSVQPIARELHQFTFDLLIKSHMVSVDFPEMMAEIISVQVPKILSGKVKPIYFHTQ
Description: Inhibition of antagonist activity towards Androgen receptor

[7] = biological target: T6, Progesterone receptor (Homo sapiens) (UniProt P06401); assay: Agonist efficacy for human progesterone receptor in T47D human breast cancer cell; not active (<20% efficacy and/or >10 mM potency); format: functional, cell-based
T6 sequence (whole entry): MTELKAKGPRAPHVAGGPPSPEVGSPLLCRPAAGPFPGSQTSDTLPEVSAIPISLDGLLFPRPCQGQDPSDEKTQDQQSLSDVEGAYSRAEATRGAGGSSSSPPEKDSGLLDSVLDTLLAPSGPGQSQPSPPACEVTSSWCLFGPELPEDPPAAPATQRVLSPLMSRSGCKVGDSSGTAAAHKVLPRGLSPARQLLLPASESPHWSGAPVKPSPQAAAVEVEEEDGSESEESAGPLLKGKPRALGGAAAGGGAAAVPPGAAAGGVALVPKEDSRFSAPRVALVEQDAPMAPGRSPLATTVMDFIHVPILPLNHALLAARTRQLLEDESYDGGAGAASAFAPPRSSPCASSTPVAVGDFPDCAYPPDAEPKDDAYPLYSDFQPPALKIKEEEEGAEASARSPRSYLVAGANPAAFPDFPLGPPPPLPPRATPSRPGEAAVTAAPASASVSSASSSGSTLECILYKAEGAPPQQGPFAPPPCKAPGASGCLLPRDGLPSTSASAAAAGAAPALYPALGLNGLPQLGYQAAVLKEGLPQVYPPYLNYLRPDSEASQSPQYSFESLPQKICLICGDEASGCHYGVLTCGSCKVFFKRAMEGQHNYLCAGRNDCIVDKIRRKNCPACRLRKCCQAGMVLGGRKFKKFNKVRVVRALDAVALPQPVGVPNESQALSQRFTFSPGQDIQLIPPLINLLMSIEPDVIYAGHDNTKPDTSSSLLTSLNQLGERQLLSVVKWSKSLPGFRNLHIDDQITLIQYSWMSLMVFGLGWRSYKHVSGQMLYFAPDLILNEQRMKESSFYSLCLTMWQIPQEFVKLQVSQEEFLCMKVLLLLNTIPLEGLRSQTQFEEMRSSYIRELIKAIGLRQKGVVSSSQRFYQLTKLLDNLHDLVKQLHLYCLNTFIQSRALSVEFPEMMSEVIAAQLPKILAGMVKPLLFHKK

[8] = biological target: T7, Progesterone receptor (Homo sapiens, UniProt P06401); assay: Effective concentration for human progesterone receptor in T47D human breast cancer cell; not active (<20% efficacy and/or >10 mM potency); details: cancer cell lines
T7 sequence (P06401 whole entry): T6 sequence (whole entry)

[9] = biological target: T7, Progesterone receptor
Description: Antagonistic activity at human progesterone receptor in CV-1 cells.

[10] = biological target: T7, Progesterone receptor; remark: listed apart in the source
Description: Binding affinity at human progesterone receptor.

[11] = biological target: T7, Progesterone receptor; remark: listed apart in the source
Description: Inhibition of human progesterone receptor activation in T47D human breast cancer cell.

[12] = biological target: T1, Glucocorticoid receptor; assay: Inhibition of antagonist activity towards glucocorticoid receptor; format: functional
[13] = biological target: T7, Progesterone receptor; remark: listed apart in the source
[14] = biological target: T3, Mineralocorticoid receptor; assay: Inhibition of antagonist activity towards mineralocorticoid receptor (hMR); format: functional
[15] = biological target: T4, Mineralocorticoid receptor (Homo sapiens); assay: Antagonist efficacy for mineralocorticoid receptor (hMR); format: functional
[16] = biological target: T6, Progesterone receptor (Homo sapiens); assay: Effective concentration against human progesterone receptor in T47D human breast cancer cell; not active (<20% efficacy and/or >10 mM potency); format: cell-based; details: Cancer cell lines
[17] = biological target: T7, Progesterone receptor; assay: Effective concentration for antagonistic activity towards human progesterone in CV-1 cells; format: functional, cell-based
[18] = biological target: T6, Progesterone receptor (Homo sapiens); assay: Antagonist efficacy for human progesterone in CV-1 cells; format: functional, cell-based
[19] = biological target: T7, Progesterone receptor; assay: Binding towards human progesterone receptor

| SMILES | Efficacy [2] | IC50 [6] [nM] | EC50 [9] [nM] | Ki [10] [nM] | IC50 [11] [nM] | EC50 [13] [nM] | other results |
| --- | --- | --- | --- | --- | --- | --- | --- |
| CC1=CC(C)(C)Nc2ccc3c(c21)COc1ccc(Cl)cc1-3 | inactive | 788 | – | – | – | – | IC50 [1]: Not Active; Efficacy [3]: inactive; IC50 [4]: Not Active; Efficacy [5]: inactive |
| CC1=CC(C)(C)Nc2ccc3c(c21)COc1ccc(-c2ccccc2)cc1-3 | – | – | 2030 | > 1000 | 811 | – | Efficacy [7]: inactive; EC50 [8]: Not Active |
| CC1=CC(C)(C)Nc2ccc3c(c21)COc1c(F)cc(C#N)cc1-3 | inactive | 60 | 16.7 | 4.5 | 149 | 86 | IC50 [12]: 194 nM; IC50 [4]: Not Active; Efficacy [5]: inactive |
| CC1=CC(C)(C)Nc2ccc3c(c21)COc1ccc(Br)cc1-3 | inactive | 395 | 45 | 15 | 485 | 552 | IC50 [12]: 1930 nM; IC50 [4]: Not Active; Efficacy [5]: inactive |
| CC1=CC(C)(C)Nc2ccc3c(c21)COc1ccc([N+](=O)[O-])cc1-3 | inactive | 60 | 28.6 | 6.8 | 152 | 257 | IC50 [12]: 689 nM; IC50 [14]: 1890 nM; Efficacy [15]: 79% |
| CC1=CC(C)(C)Nc2ccc3c(c21)COc1c(C)cc(Cl)cc1-3 | – | – | 178 | 205 | 374 | – | – |
| CC1=CC(C)(C)Nc2ccc3c(c21)COc1c(F)cccc1-3 | – | – | 118 | 248 | 368 | > 1000 | – |
| CN(C)c1ccc([C@H]2C[C@]3(C)[C@@H](CC[C@]3(O)CCCO)[C@@H]3CCC4=CC(=O)CCC4=C32)cc1 [ONAPRISTONE] | – | – | – | – | – | – | IC50 [14]: 470 nM; Efficacy [15]: 49%; Activity [16]: inactive; Activity [7]: inactive |
| Cc1cc(F)cc2c1OCc1c-2ccc2c1C(C)CC(C)(C)N2 (stereo not drawn) | – | – | 637 | 391 | 499 | – | Activity [16]: inactive; Activity [7]: inactive |
| CC1=CC(C)(C)Nc2ccc3c(c21)COc1c(Br)cc(Br)cc1-3 | – | – | – | – | – | – | EC50 [17]: 1870 nM; Efficacy [18]: 86%; Ki [19]: > 1000 nM |
| CC1CC(C)(C)Nc2ccc3c(c21)COc1c-3cc(F)cc1[N+](=O)[O-] (stereo not drawn) | – | – | 781 | 370 | 483 | – | Activity [16]: inactive; Activity [7]: inactive |
| COc1cc(Br)cc2c1OCc1c-2ccc2c1C(C)=CC(C)(C)N2 | – | – | 43 | 476 | – | – | – |
| COc1ccc2c(c1)-c1ccc3c(c1CO2)C(C)=CC(C)(C)N3 | – | – | 170 | 86 | 187 | > 1000 | – |
